System: granuloma formation
Experiment: Cotton pellet granuloma (Table 2)
Type: in vivo, rat
Details: male rats, 7 days
Procedure: The experiments were performed on male rats weighing 140-160 g. In ether anaesthesia a […]. cotton pellet was placed in each of two subcutaneous pockets in the dorsal region of the animal. The drug was administered orally during a period of 7 days. The controls received a drugfree suspension. The doses seen in the Table were administered in two portions, in the morning and in the afternoon, respectively. On the 8th day the animals were killed and the pellets were dissected. After removal of fat and extraneous tissue, the pellets were dried for 5 hours at 50° C and weighed. The weight of the cotton pellet before implantation was subtracted from the weight of the dried, dissected pellet and drug efficiency was calculated from the obtained difference. Significance was calculated with Student's t test and drug effect was expressed as per cent.

COc1ccc2c(c1)c(CC(=O)OCC(Cl)(Cl)Cl)c(C)n2C(=O)c1ccc(Cl)cc1 [Example 5, 1-(p-chlorobenzoyl)-2-methyl-5-methoxy-indol-3-yl-acetic-acid trichloroethyl ester]
Inhibition of granuloma formation (oral 5.5 mg./kg.): 19.5%
granuloma tissue, treated (oral 5.5 mg./kg.): 56.7±11.1
Inhibition of granuloma formation (oral 11 mg./kg.): 24.8%
granuloma tissue, treated (oral 11 mg./kg.): 52.0±17.8
